Where “and” joins values, the source holds several entries; their conditions need not be identical. Identical values can stand only once.
What was measured:
[1] = test system: MMT/MCLT rat model of OA; experiment: MMT/MCLT trial 2 histopathology (same doses); assay type: in vivo; conditions: i.a., tacrolimus 15 ng
Excerpt: For MMT/MCLT rat knee joints, sections were cut in 200-μm steps; stained with toluidine blue (also with a right and left half per section); and similarly analyzed for cartilage degeneration, proteoglycan loss, collagen damage, and osteophyte formation. Results were averaged across the three sections for an overall semiquantitative score. Regional differences across the tibial plateau were taken into consideration by dividing each section into three zones delineated using an ocular micrometer (outside, middle, and inside). Scores were based on the percentage of area affected within the zone.
Cartilage degeneration in the tibia was scored on a 5-point scale as detailed in the Methods section of Additional file 1. The total extent of degeneration of the tibial plateau was measured (in micrometers) and included an analysis of cell loss, proteoglycan loss, and collagen damage. Significant cartilage degeneration reflecting any degeneration extending through more than 50 % of the cartilage thickness was also measured. Collagen damage across the medial tibial plateau (the most severely affected section of the two halves) was also quantified.
Osteophytes and femoral cartilage degeneration were analyzed as detailed in Additional file 1. Scoring of the osteophytes and categorization into small, medium, and large was performed using an ocular micrometer. The actual osteophyte measurement (tidemark to farthest distance point extending toward the synovium) was also recorded. The femoral cartilage degeneration score and the three-zone sum of the tibial cartilage degeneration scores (mean of three levels) were summed to create a total cartilage degeneration score. The mean osteophyte score for each joint was added to this value to create a total joint score. […]
Histopathology MMT/MCLT Model

[2] = test system: MMT/MCLT rat model of OA; experiment: MMT/MCLT trial 1 histopathology (same doses); assay type: in vivo; conditions: low or only dose
In short: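 Rat knee joints were sectioned in 200-μm steps and stained with toluidine blue. Tibial cartilage degeneration was scored on a 5-point scale in three zones and summed with femoral scores, plus osteophyte scores, to give a total joint score. Results were averaged over three sections.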

[3] = test system: HeLa cells; experiment: HeLa cell viability (CellTiter-Glo)
In short: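 HeLa cells with and without drug were tested for viability by CellTiter-Glo luminescence as a toxicity read-out. In the companion NF-κB reporter assay, cells co-transfected with NF-κB firefly and Renilla luciferase plasmids (8:1) were read by Dual-Glo 5 h later, normalized to viable cells and expressed as fold over unstimulated, untreated cells.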

COc1cc(/C=C/C(=O)CC(=O)/C=C/c2ccc(O)c(OC)c2)ccc1O [Curcumin, Diferuloylmethane]
Femoral cartilage degeneration score ([1]; mean): 1.63 ± 0.61
Total joint score ([1]; mean): 9.57 ± 0.91
% decrease, tibial score zone 2 ([1]; vs saline group, curcumin 30 μg): 40%
Bone score ([2]; mean): 3.13
Femoral cartilage degeneration score ([2]; mean): 2.21 and 2.21 ± 0.60
Tibial cartilage degeneration score, 3-zone total ([2]; mean): 6.50
Tibial cartilage degeneration score, zone 1 ([2]; mean): 4.08
Tibial cartilage degeneration score, zone 2 ([2]; mean): 2.38
Tibial cartilage degeneration score, zone 3 ([2]; mean): 0.04
Tibial cartilage degeneration width, significant ([2]; mean): 741.67 µm
Tibial cartilage degeneration width, total ([2]; mean): 1312.50 µm
Tibial osteophyte measure ([2]; mean): 592.92 µm
Tibial osteophyte score ([2]; mean): 4.25
Total joint score ([2]; mean): 12.96 and 12.96 ± 0.62
Total joint score w/o femur ([2]; mean): 10.75
% decrease, bone score ([2]; vs saline group): 4%
% decrease, femoral cartilage degeneration score ([2]; vs saline group): -20%
% decrease, osteophyte measure ([2]; vs saline group): -16%
% decrease, osteophyte score ([2]; vs saline group): -9%
% decrease, significant degeneration width ([2]; vs saline group): -2%
% decrease, tibial score 3-zone total ([2]; vs saline group): 1%
% decrease, tibial score zone 1 ([2]; vs saline group): 5%
% decrease, tibial score zone 2 ([2]; vs saline group): -8%
% decrease, tibial score zone 3 ([2]; vs saline group): 0%
% decrease, total degeneration width ([2]; vs saline group): 0%
% decrease, total joint score ([2]; vs saline group): -5%
% decrease, total joint score w/o femur ([2]; vs saline group): -3%
Non-toxic concentrations [3]: 0 to 33.75 M
